In PubChem BioAssay AID248 (DTP/NCI, 2004):
Where “and” joins values, the source holds several entries; their conditions need not be identical. Equal entries are not always repeated. Toxic doses and inconclusive results are not listed. No stated cut-off is given here; in the data, active means T/C of 150% or more; inactive means T/C below 125%.

Tested on: L1210 leukemia ip in BDF1 mice, survival T/C
Assay: NCI In Vivo Anticancer Drug Screen. Data for tumor model L1210 Leukemia (intraperitoneal) in B6D2F1 (BDF1) mice
Settings: endpoint: mean survival time, higher = longer survival
Procedure, shortened: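 In this screen, tumor-bearing mice given compound are compared to those given vehicle, and their survival values are reported as a treated-to-control quotient.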

[1] = dose: 100.0 mg/kg/injection, schedule: Q01DX001 (ip), vehicle: carboxymethylcellulose (CMC)
[2] = dose: 200.0 mg/kg/injection, schedule: Q01DX001 (ip), vehicle: carboxymethylcellulose (CMC)
[3] = dose: 400.0 mg/kg/injection, schedule: Q01DX001 (ip), vehicle: carboxymethylcellulose (CMC)
[4] = dose: 100.0 mg/kg/injection, schedule: Q04DX003 (ip), vehicle: saline with Tween-80
[5] = dose: 200.0 mg/kg/injection, schedule: Q04DX003 (ip), vehicle: saline with Tween-80
[6] = dose: 400.0 mg/kg/injection, schedule: Q04DX003 (ip), vehicle: saline with Tween-80
[7] = dose: 50.0 mg/kg/injection, schedule: Q01DX009 (ip), vehicle: saline
[8] = dose: 100.0 mg/kg/injection, schedule: Q04DX003 (ip), vehicle: Klucel (hydroxypropylcellulose) (HPC)
[9] = dose: 200.0 mg/kg/injection, schedule: Q04DX003 (ip), vehicle: Klucel (hydroxypropylcellulose) (HPC)
[10] = dose: 400.0 mg/kg/injection, schedule: Q04DX003 (ip), vehicle: Klucel (hydroxypropylcellulose) (HPC)
[11] = dose: 100.0 mg/kg/injection, schedule: Q01DX009 (ip), vehicle: Klucel (hydroxypropylcellulose) (HPC)
[12] = dose: 200.0 mg/kg/injection, schedule: Q01DX009 (ip), vehicle: Klucel (hydroxypropylcellulose) (HPC)
[13] = dose: 50.0 mg/kg/injection, schedule: Q04DX002 (ip), vehicle: Klucel (hydroxypropylcellulose) (HPC)
[14] = dose: 100.0 mg/kg/injection, schedule: Q04DX002 (ip), vehicle: Klucel (hydroxypropylcellulose) (HPC)
[15] = dose: 200.0 mg/kg/injection, schedule: Q04DX002 (ip), vehicle: Klucel (hydroxypropylcellulose) (HPC)
[16] = dose: 400.0 mg/kg/injection, schedule: Q04DX002 (ip), vehicle: Klucel (hydroxypropylcellulose) (HPC)

Measured: T/C

O=C(O)CCCCCN1C(=O)C2=C(CCCC2)C1=O
inactive: dose: 75.0 mg/kg/injection, schedule: Q04DX003 (ip), vehicle: saline 98 % of control | dose: 150.0 mg/kg/injection, schedule: Q04DX003 (ip), vehicle: saline 103 % of control | dose: 300.0 mg/kg/injection, schedule: Q04DX003 (ip), vehicle: saline 93 % of control

Nc1c(Cl)c(Cl)c2c(c1Cl)/C(=N/O)c1cc(Cl)ccc1-2
inactive: [1] 95 % of control | [2] 95 % of control | [3] 103 % of control

N#Cc1ccc[n+]([O-])c1
inactive: [4] 100 % of control | [5] 101 % of control | [6] 97 % of control

CC(=O)Nc1cc(NC(C)=O)cc([N+](=O)[O-])c1
inactive: [7] 96 % of control | dose: 100.0 mg/kg/injection, schedule: Q01DX009 (ip), vehicle: saline 105 % of control | dose: 100.0 mg/kg/injection, schedule: Q04DX003 (ip), vehicle: saline 94 % of control | dose: 200.0 mg/kg/injection, schedule: Q04DX003 (ip), vehicle: saline 102 % of control | dose: 400.0 mg/kg/injection, schedule: Q04DX003 (ip), vehicle: saline 100 % of control

O=C1NC(c2c(Cl)cccc2Cl)Nc2ccccc21 (centres undefined)
inactive: [8] 100 % of control | [9] 100 % of control | [10] 111 % of control

CCOC(=O)CCC1(C(=O)OC)C(=O)CCCCCCC1C(=O)OC (centres undefined)
inactive: [4] 103 % of control | [5] 99 % of control | [6] 96 % of control

CN1CN2c3ccccc3CCC2C2CCCC21 (centres undefined)
inactive: dose: 50.0 mg/kg/injection, schedule: Q04DX002 (ip), vehicle: saline with Tween-80 104 % of control | dose: 100.0 mg/kg/injection, schedule: Q04DX002 (ip), vehicle: saline with Tween-80 96 % of control | dose: 200.0 mg/kg/injection, schedule: Q04DX002 (ip), vehicle: saline with Tween-80 101 % of control

CCCCCCCCN(N)C12CC3CC(CC(C3)C1)C2
inactive: dose: 6.25 mg/kg/injection, schedule: Q01DX009 (ip), vehicle: saline 106 % of control | dose: 12.5 mg/kg/injection, schedule: Q01DX009 (ip), vehicle: saline 107 % of control | dose: 12.5 mg/kg/injection, schedule: Q04DX003 (ip), vehicle: saline 113 % of control | dose: 25.0 mg/kg/injection, schedule: Q01DX009 (ip), vehicle: saline 106 % of control | dose: 25.0 mg/kg/injection, schedule: Q04DX003 (ip), vehicle: saline 113 % of control | [7] 87 % of control | dose: 50.0 mg/kg/injection, schedule: Q04DX003 (ip), vehicle: saline 113 % of control

O=S(=O)(/N=C1C=C/C(=N/S(=O)(=O)c2ccccc2)C2C3C=CC(C3)C/12)c1ccccc1 (centres undefined)
inactive: [11] 109 % of control | [8] 94 % of control | [12] 103 % of control | [9] 97 % of control | dose: 400.0 mg/kg/injection, schedule: Q01DX009 (ip), vehicle: Klucel (hydroxypropylcellulose) (HPC) 95 % of control | [10] 92 % of control

OC(c1ccccc1)(c1ccccc1)c1ccccc1
inactive: dose: 9.0 mg/kg/injection, schedule: Q01DX015 (ip), vehicle: saline 95 % of control | dose: 18.0 mg/kg/injection, schedule: Q01DX015 (ip), vehicle: saline 101 % of control | dose: 36.0 mg/kg/injection, schedule: Q01DX015 (ip), vehicle: saline 98 % of control | [13] 97 % of control | dose: 72.0 mg/kg/injection, schedule: Q01DX015 (ip), vehicle: saline 98 % of control | [14] 95 % of control and 103 % of control | dose: 100.0 mg/kg/injection, schedule: Q04DX002 (ip), vehicle: other 95 % of control | dose: 143.0 mg/kg/injection, schedule: Q01DX015 (ip), vehicle: saline 91 % of control | [15] 94 % of control | dose: 200.0 mg/kg/injection, schedule: Q04DX002 (ip), vehicle: other 95 % of control | dose: 286.0 mg/kg/injection, schedule: Q01DX015 (ip), vehicle: saline 89 % of control | [16] 103 % of control and 88 % of control | dose: 400.0 mg/kg/injection, schedule: Q04DX002 (ip), vehicle: other 92 % of control | dose: 572.0 mg/kg/injection, schedule: Q01DX015 (ip), vehicle: saline 98 % of control

NNc1ccccc1
inactive: dose: 100.0 mg/kg/injection, schedule: Q01DX001 (ip), vehicle: saline 105 % of control | dose: 200.0 mg/kg/injection, schedule: Q01DX001 (ip), vehicle: saline 111 % of control

CCOP(=O)(OCC)C1c2cc(Cl)ccc2-c2c(Cl)cc(Cl)cc21 (centres undefined)
inactive: dose: 15.0 mg/kg/injection, schedule: Q01DX001 (ip), vehicle: saline 103 % of control | dose: 30.0 mg/kg/injection, schedule: Q01DX001 (ip), vehicle: saline 98 % of control | dose: 60.0 mg/kg/injection, schedule: Q01DX001 (ip), vehicle: saline 103 % of control

CCN1C(=O)CC(=O)N(CC)C1=S
inactive: dose: 50.0 mg/kg/injection, schedule: Q01DX009 (ip), vehicle: Klucel (hydroxypropylcellulose) (HPC) 103 % of control | [11] 101 % of control | [8] 94 % of control | [12] 97 % of control | [9] 89 % of control

O=C(O)C1(Nc2ccc(-c3ccc(Br)cc3)cc2)CCCC1
inactive: dose: 50.0 mg/kg/injection, schedule: Q01DX001 (ip), vehicle: carboxymethylcellulose (CMC) 90 % of control | [1] 90 % of control | [2] 90 % of control | [3] 90 % of control

COC1C(OC(N)=O)C(O)C(Oc2ccc3c(O)c(NC(=O)c4ccc(O)c(CC=C(C)C)c4)c(=O)oc3c2C)OC1(C)C (centres undefined)
inactive: dose: 50.0 mg/kg/injection, schedule: Q01DX Z (ip), vehicle: saline 91 % of control | dose: 100.0 mg/kg/injection, schedule: Q01DX Z (ip), vehicle: saline 91 % of control | dose: 200.0 mg/kg/injection, schedule: Q01DX Z (ip), vehicle: saline 91 % of control

CCC(=O)NC1Cc2cc(C)cc(C)c21 (centres undefined)
inactive: dose: 25.0 mg/kg/injection, schedule: Q04DX002 (ip), vehicle: Klucel (hydroxypropylcellulose) (HPC) 113 % of control | [13] 92 % of control | [14] 100 % of control

CC(C)CCC(C)C1CCC2C3CC([N+](=O)[O-])=C4CC(OC(=O)c5ccccc5)CCC4(C)C3CCC12C (centres undefined)
inactive: dose: 100.0 mg/kg/injection, schedule: Q01DX009 (ip), vehicle: saline with Tween-80 103 % of control | dose: 200.0 mg/kg/injection, schedule: Q01DX009 (ip), vehicle: saline with Tween-80 90 % of control | dose: 400.0 mg/kg/injection, schedule: Q01DX009 (ip), vehicle: saline with Tween-80 90 % of control

O=C(COc1ccc(Cl)cc1)OCCBr
inactive: [14] 121 % of control | [15] 105 % of control | [16] 102 % of control

O=C1C2(Cl)C(Cl)=C(Cl)C1(Cl)C1(Cl)C(Cl)=C(Cl)C(=O)C21Cl (centres undefined)
inactive: dose: 100.0 mg/kg/injection, schedule: Q01DX001 (ip), vehicle: Klucel (hydroxypropylcellulose) (HPC) 102 % of control | dose: 200.0 mg/kg/injection, schedule: Q01DX001 (ip), vehicle: Klucel (hydroxypropylcellulose) (HPC) 102 % of control | dose: 400.0 mg/kg/injection, schedule: Q01DX001 (ip), vehicle: Klucel (hydroxypropylcellulose) (HPC) 97 % of control
